{"source": "paper PMC7714403", "about": "(JCI Insight, 2020)", "key": {"SMG1": {"biological_target": "SMG1 (Homo sapiens, UniProt Q96Q15)", "sequence (Q96Q15 whole entry)": "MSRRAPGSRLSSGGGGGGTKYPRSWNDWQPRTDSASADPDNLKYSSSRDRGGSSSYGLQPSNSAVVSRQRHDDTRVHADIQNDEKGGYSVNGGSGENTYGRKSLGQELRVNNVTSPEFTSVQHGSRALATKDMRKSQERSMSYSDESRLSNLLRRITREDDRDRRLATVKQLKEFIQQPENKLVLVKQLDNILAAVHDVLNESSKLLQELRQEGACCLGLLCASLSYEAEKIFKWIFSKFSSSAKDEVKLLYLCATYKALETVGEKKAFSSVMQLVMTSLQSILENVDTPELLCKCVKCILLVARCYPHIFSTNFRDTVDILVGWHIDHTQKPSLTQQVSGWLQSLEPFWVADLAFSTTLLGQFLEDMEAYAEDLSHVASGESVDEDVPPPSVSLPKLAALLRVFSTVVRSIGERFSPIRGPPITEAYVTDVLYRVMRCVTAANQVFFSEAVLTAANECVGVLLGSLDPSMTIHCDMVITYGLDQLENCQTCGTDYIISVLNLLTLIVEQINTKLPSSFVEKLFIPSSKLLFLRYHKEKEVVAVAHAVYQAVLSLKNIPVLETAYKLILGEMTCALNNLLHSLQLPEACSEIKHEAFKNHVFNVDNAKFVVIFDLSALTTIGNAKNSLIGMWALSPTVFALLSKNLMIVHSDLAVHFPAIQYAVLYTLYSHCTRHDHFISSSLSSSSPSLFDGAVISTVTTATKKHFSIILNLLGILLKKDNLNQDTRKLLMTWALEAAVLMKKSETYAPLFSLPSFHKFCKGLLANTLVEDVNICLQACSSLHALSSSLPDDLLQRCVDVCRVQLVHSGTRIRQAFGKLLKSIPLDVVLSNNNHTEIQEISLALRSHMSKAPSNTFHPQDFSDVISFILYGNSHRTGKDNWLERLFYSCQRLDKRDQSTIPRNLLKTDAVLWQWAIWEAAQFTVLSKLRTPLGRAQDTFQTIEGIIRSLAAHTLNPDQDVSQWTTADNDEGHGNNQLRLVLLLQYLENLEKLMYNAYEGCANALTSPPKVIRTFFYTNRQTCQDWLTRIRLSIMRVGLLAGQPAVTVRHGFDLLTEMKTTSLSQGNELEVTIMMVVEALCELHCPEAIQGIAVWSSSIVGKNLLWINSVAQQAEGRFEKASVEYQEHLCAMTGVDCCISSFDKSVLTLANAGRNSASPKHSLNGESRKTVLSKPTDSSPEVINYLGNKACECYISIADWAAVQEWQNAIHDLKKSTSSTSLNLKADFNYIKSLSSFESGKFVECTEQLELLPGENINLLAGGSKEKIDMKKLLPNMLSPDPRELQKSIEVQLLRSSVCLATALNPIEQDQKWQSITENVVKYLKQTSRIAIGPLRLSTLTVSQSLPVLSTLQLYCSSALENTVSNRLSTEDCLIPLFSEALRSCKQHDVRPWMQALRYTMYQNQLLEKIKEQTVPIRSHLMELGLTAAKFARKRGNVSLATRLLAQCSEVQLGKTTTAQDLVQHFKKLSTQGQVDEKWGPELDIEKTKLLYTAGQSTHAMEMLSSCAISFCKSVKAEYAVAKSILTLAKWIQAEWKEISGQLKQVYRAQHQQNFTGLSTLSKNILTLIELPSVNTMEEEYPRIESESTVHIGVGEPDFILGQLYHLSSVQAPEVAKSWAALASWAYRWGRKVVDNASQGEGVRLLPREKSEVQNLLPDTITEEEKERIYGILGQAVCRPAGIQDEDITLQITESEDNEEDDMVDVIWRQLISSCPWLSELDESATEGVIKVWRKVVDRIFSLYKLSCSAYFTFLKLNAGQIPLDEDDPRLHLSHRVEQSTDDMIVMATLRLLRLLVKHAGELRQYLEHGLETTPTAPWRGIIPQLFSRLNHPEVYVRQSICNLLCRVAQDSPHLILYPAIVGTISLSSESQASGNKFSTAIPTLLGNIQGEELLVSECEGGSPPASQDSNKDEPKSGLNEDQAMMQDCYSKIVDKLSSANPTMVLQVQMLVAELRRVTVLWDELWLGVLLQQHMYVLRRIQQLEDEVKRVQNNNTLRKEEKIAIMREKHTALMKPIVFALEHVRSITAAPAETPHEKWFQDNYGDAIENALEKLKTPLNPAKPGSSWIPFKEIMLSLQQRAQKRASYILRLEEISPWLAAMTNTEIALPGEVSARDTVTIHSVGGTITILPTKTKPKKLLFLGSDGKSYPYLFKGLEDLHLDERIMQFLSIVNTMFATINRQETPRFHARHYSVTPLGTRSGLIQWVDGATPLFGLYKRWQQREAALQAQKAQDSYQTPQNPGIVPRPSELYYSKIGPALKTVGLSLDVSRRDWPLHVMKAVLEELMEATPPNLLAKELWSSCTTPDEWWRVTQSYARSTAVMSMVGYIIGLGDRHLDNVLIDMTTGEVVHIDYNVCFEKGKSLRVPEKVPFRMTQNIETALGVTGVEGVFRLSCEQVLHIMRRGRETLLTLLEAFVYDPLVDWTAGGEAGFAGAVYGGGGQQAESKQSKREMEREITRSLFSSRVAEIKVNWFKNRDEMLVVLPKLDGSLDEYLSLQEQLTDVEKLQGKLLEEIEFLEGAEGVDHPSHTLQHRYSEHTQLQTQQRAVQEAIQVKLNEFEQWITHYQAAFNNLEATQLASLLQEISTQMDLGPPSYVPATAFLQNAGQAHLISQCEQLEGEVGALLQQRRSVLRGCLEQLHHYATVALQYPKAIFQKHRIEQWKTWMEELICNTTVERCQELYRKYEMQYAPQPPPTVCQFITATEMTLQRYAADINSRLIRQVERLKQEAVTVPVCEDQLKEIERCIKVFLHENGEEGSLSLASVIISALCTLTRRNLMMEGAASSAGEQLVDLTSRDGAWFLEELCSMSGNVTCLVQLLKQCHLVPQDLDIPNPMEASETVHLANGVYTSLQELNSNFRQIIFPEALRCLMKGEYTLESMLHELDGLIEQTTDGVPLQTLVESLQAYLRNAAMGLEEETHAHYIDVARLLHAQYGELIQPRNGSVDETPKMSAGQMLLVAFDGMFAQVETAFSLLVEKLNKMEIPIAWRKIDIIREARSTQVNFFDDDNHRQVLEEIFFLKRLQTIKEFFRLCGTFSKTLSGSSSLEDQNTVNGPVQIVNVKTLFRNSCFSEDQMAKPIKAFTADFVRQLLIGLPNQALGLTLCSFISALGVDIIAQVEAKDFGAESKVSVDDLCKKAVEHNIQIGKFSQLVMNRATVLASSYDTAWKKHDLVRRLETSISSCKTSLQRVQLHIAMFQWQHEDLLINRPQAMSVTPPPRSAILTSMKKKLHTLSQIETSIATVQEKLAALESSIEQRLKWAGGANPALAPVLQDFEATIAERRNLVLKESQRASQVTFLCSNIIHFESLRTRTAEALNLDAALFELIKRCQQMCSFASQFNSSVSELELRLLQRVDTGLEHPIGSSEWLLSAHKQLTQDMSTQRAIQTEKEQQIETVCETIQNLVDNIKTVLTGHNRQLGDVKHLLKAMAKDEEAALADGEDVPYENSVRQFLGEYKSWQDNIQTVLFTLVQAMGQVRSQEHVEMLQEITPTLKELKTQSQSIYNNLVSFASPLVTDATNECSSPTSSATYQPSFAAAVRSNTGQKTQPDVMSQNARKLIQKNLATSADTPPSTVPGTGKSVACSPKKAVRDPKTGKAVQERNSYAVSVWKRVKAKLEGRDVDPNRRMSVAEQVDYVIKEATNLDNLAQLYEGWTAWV", "test": "KiNativ, OCI cells live cell", "type": "cell-based", "details": "labeling site ATP"}, "HPK1": {"biological_target": "HPK1 (Homo sapiens, UniProt Q92918)", "sequence (Q92918 whole entry)": "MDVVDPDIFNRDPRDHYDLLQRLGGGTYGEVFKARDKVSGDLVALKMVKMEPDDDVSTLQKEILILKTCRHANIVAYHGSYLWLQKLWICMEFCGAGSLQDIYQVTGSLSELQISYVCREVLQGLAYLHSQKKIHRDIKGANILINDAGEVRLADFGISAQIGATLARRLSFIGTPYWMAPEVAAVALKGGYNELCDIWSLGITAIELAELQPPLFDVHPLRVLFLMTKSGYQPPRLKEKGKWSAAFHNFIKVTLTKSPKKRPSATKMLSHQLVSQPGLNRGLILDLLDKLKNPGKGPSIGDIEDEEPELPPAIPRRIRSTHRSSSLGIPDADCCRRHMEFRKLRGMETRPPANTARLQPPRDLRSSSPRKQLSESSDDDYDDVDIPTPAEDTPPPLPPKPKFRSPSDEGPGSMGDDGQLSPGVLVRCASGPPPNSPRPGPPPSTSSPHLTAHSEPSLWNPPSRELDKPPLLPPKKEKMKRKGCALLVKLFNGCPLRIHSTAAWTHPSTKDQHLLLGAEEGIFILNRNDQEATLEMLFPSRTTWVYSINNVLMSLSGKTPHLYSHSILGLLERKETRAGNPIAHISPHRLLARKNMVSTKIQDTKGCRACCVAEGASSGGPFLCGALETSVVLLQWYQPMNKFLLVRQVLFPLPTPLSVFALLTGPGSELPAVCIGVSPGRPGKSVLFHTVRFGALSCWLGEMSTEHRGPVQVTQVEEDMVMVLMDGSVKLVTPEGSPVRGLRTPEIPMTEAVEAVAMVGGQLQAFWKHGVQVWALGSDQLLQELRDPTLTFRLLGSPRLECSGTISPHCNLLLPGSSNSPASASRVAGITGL", "test": "KiNativ, OCI cells live cell", "type": "cell-based", "details": "2 h"}, "GCN2 domain2": {"biological_target": "T1, GCN2 domain2 (Homo sapiens, UniProt Q9P2K8)", "T1 construct": "GCN2 domain2", "test": "KiNativ, OCI cells live cell", "type": "cell-based", "details": "2 h"}, "BARK1": {"biological_target": "BARK1 (Homo sapiens, UniProt P25098)", "test": "KiNativ, OCI cells live cell", "type": "cell-based", "details": "2 h, labeling site Lys2, peptide […]"}, "MAP3K6": {"biological_target": "MAP3K6 (Homo sapiens, UniProt O95382)", "test": "KiNativ, OCI cells live cell", "type": "cell-based", "details": "2 h, labeling site Lys2, peptide […]"}, "SGK3": {"biological_target": "SGK3 (Homo sapiens, UniProt Q96BR1)", "test": "KiNativ, OCI cells live cell", "type": "cell-based", "details": "2 h, labeling site Lys1, peptide […]"}, "NEK6, NEK7": {"system": "NEK6, NEK7", "test": "KiNativ, OCI cells live cell", "type": "cell-based, human", "details": "labeling site Lys2, peptide DIKPANVFITATGVVK"}, "Wnk1, Wnk2, Wnk3": {"system": "Wnk1, Wnk2, Wnk3", "test": "KiNativ, OCI cells live cell", "type": "cell-based, human", "details": "labeling site Lys2, peptide DLKCDNIFITGPTGSVK"}, "IRAK4": {"biological_target": "T2, IRAK4 (Homo sapiens, UniProt Q9NWZ3)", "T2 sequence (Q9NWZ3 1-460)": "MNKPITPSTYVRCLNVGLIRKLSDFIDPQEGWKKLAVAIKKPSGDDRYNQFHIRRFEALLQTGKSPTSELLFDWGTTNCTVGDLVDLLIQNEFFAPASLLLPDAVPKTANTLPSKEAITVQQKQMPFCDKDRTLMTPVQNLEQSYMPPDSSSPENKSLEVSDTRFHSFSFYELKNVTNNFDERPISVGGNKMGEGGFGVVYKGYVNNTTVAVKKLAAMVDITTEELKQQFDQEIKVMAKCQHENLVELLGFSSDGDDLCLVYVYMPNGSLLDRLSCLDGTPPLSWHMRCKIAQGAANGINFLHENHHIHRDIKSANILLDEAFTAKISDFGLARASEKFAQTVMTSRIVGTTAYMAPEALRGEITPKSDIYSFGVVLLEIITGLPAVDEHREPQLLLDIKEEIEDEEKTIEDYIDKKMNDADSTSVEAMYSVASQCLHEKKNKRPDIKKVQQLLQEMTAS", "test": "KiNativ, OCI cells live cell", "type": "cell-based"}, "AurA, AurB, AurC": {"system": "AurA, AurB, AurC", "test": "KiNativ, OCI cells live cell", "type": "cell-based, human", "details": "labeling site ATP Loop, peptide GKFGNVYLAR"}, "YANK3": {"biological_target": "YANK3 (Homo sapiens, UniProt Q86UX6)", "test": "KiNativ, OCI cells live cell", "type": "cell-based", "details": "2 h, labeling site Lys2, peptide […]"}, "AMPKa1, AMPKa2": {"system": "AMPKa1, AMPKa2", "test": "KiNativ, OCI cells live cell", "type": "cell-based, human"}, "FRAP": {"biological_target": "FRAP (Homo sapiens, UniProt P42345)", "test": "KiNativ, OCI cells live cell", "type": "cell-based", "details": "2 h, labeling site ATP, peptide […]"}, "MST3, MST4, YSK1": {"system": "MST3, MST4, YSK1", "test": "KiNativ, OCI cells live cell", "type": "cell-based, human", "details": "labeling site Activation Loop, peptide LADFGVAGQLTDTQIKR"}, "PHKg2": {"biological_target": "PHKg2 (Homo sapiens, UniProt P15735)", "test": "KiNativ, OCI cells live cell", "type": "cell-based", "details": "2 h, labeling site Lys1, peptide […]"}, "SRPK1, SRPK2": {"system": "SRPK1, SRPK2", "test": "KiNativ, OCI cells live cell", "type": "cell-based, human", "details": "labeling site Lys1, peptide FVAMKVVK"}, "PIP5K3": {"biological_target": "PIP5K3 (Homo sapiens, UniProt Q9Y2I7)", "test": "KiNativ, OCI cells live cell", "type": "cell-based", "details": "labeling site ATP, peptide GGKSGAAFYATEDDRFILK"}, "PKR": {"biological_target": "PKR (Homo sapiens, UniProt P19525)", "sequence (P19525 whole entry)": "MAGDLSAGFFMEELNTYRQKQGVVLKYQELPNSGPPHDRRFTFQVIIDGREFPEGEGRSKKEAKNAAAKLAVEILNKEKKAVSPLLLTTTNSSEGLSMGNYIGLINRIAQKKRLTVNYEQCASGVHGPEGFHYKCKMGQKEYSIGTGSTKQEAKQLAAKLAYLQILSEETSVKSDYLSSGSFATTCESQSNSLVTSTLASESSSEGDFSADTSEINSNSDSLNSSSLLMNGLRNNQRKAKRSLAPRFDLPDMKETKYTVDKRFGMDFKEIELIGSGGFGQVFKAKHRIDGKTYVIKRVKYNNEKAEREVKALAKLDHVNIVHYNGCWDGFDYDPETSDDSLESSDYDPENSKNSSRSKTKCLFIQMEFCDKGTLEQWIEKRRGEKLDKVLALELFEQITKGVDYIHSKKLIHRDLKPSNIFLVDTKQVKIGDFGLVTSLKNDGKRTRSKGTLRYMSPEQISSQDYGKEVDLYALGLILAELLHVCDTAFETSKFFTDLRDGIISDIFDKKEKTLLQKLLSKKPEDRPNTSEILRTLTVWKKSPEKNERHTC", "test": "KiNativ, OCI cells live cell", "type": "cell-based"}, "ILK": {"biological_target": "T3, ILK (Homo sapiens, UniProt Q13418)", "T3 sequence (Q13418 1-452)": "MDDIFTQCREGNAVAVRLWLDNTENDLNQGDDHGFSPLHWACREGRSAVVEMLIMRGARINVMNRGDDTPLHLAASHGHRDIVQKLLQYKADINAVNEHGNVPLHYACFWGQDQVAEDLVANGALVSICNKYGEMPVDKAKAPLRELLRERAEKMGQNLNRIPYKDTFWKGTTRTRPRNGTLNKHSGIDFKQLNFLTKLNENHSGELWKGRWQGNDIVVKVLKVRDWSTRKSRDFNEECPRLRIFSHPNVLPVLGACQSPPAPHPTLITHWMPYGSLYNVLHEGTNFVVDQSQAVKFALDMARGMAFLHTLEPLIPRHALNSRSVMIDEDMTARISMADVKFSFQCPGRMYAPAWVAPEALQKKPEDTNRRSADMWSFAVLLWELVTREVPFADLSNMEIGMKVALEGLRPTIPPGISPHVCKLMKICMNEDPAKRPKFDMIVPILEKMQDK", "test": "KiNativ, OCI cells live cell", "type": "cell-based", "details": "2 h"}, "MAP3K1": {"biological_target": "MAP3K1 (Homo sapiens, UniProt Q13233)", "test": "KiNativ, OCI cells live cell", "type": "cell-based", "details": "2 h, labeling site Lys2, peptide […]"}, "CDK10": {"biological_target": "CDK10 (Homo sapiens, UniProt Q15131)", "test": "KiNativ, OCI cells live cell", "type": "cell-based", "details": "2 h, labeling site Lys2, peptide […]"}, "[1]": {"system": "MV4-11, MOLM13, and MOLM13-RES cells", "test": "MTT viability assay", "type": "cell-based", "details": "Homo sapiens; range over MV4-11, MOLM13, MOLM13-RES", "method": "(§1) Drug treatments were carried out for 72 hours. Details are provided in the Supplemental Methods."}, "[2]": {"system": "Ba/F3 cells expressing FLT3 D835H/Y", "test": "MTT viability assay", "type": "cell-based", "details": "Mus musculus, BaF3, read-out: IC50 values, range", "method": "as §1"}}}
{"smiles": "CN1CCN(Cc2ccc(Nc3ncc(Cl)c(Nc4ccccc4S(=O)(=O)N(C)C)n3)cc2)CC1", "note": "[TP-0903]", "values": [{"measurement": "Inhibition", "setting": "SMG1; peptide DTVTIHSVGGTITILPTKTKPK", "value": 12.1, "unit": "%"}, {"measurement": "Inhibition", "setting": "SMG1; peptide SYPYLFKGLEDLHLDER", "value": -6.4, "unit": "%"}, {"measurement": "inhibition at 0.1 µM", "setting": "HPK1; labeling site Lys1, peptide DKVSGDLVALKMVK", "value": 81, "unit": "%"}, {"measurement": "inhibition at 0.1 µM", "setting": "HPK1; labeling site Lys2, peptide DIKGANILINDAGEVR", "value": 78.7, "unit": "%"}, {"measurement": "inhibition at 0.1 µM", "setting": "GCN2 domain2; labeling site Lys1, peptide LDGCCYAVKR", "value": -6.9, "unit": "%"}, {"measurement": "inhibition at 0.1 µM", "setting": "GCN2 domain2; labeling site Lys2, peptide DLKPVNIFLDSDDHVK", "value": -2.8, "unit": "%"}, {"measurement": "inhibition at 0.1 µM", "setting": "BARK1", "value": -3.8, "unit": "%"}, {"measurement": "inhibition at 0.1 µM", "setting": "MAP3K6", "value": -13.5, "unit": "%"}, {"measurement": "inhibition at 0.1 µM", "setting": "SGK3", "value": -12.3, "unit": "%"}, {"measurement": "Inhibition", "setting": "NEK6, NEK7", "value": -9.6, "unit": "%"}, {"measurement": "Inhibition", "setting": "Wnk1, Wnk2, Wnk3", "value": -14.9, "unit": "%"}, {"measurement": "Inhibition", "setting": "IRAK4; labeling site Lys1, peptide GYVNNTTVAVKK", "value": -0.0707, "unit": "%"}, {"measurement": "Inhibition", "setting": "IRAK4; labeling site Lys2, peptide DIKSANILLDEAFTAK", "value": 8.2, "unit": "%"}, {"measurement": "Inhibition", "setting": "AurA, AurB, AurC", "value": 91.0, "unit": "%"}, {"measurement": "inhibition at 0.1 µM", "setting": "YANK3", "value": 8.4, "unit": "%"}, {"measurement": "Inhibition", "setting": "AMPKa1, AMPKa2; labeling site Lys1, peptide VAVKILNR", "value": 71.8, "unit": "%"}, {"measurement": "Inhibition", "setting": "AMPKa1, AMPKa2; labeling site Lys2, peptide DLKPENVLLDAHMNAK", "value": 75.1, "unit": "%"}, {"measurement": "inhibition at 0.1 µM", "setting": "FRAP", "value": 7.9, "unit": "%"}, {"measurement": "Inhibition", "setting": "MST3, MST4, YSK1", "value": -57.1, "unit": "%"}, {"measurement": "inhibition at 0.1 µM", "setting": "PHKg2", "value": -5.7, "unit": "%"}, {"measurement": "Inhibition", "setting": "SRPK1, SRPK2", "value": -36.9, "unit": "%"}, {"measurement": "Inhibition", "setting": "PIP5K3", "value": 18.4, "unit": "%"}, {"measurement": "Inhibition", "setting": "PKR; labeling site Activation Loop, peptide IGDFGLVTSLKNDGKR", "value": -16.3, "unit": "%"}, {"measurement": "Inhibition", "setting": "PKR; labeling site Lys2, peptide DLKPSNIFLVDTK", "value": -9.9, "unit": "%"}, {"measurement": "inhibition at 0.1 µM", "setting": "ILK; labeling site Lys1, peptide WQGNDIVVKVLK", "value": -21.7, "unit": "%"}, {"measurement": "inhibition at 0.1 µM", "setting": "ILK; labeling site Protein Kinase Domain, peptide ISMADVKFSFQCPGR", "value": -42.5, "unit": "%"}, {"measurement": "inhibition at 0.1 µM", "setting": "MAP3K1", "value": 57.6, "unit": "%"}, {"measurement": "inhibition at 0.1 µM", "setting": "CDK10", "value": 10, "unit": "%"}, {"measurement": "IC50", "setting": "[1]", "value": "16 to 21", "unit": "nM"}, {"measurement": "IC50", "setting": "[2]", "value": "16 to 22", "unit": "nM"}]}
